Values of other authors in patent publication US20200352795A1, “WETNESS INDICATOR WITH HARDENERS” (SAVARE' I.C. S.r.l., priority 2018, published 2020).

Conditions: for pKa: Table 1

Compound | pKa of pH-indicator colorant | pKa
O=C1OC2(c3cc(Br)c(O)c(Br)c3Oc3c2cc(Br)c(O)c3Br)c2c(Cl)c(Cl)c(Cl)c(Cl)c21 [Acid Phloxine B] | ~2.9 | 2.9
O=S(=O)(O)c1ccc(N=C2C=CC(=C(c3ccc(Nc4ccc(S(=O)(=O)O)cc4)cc3)c3ccc(Nc4ccc(S(=O)(=O)O)cc4)cc3)C=C2)cc1 [Aniline Blue (also known as Methyl Blue), Aniline Blue] | – | 11.7
Cc1c(C2(c3cc(Br)c(O)c(Br)c3C)OS(=O)(=O)c3ccccc32)cc(Br)c(O)c1Br [Bromocresol Green Free Acid] | – | 4.8
Cc1cc(C2(c3cc(C)c(O)c(Br)c3)OS(=O)(=O)c3ccccc32)cc(Br)c1O [Bromocresol Purple Free Acid] | 6.3 | –
O=S1(=O)OC(c2cc(Br)c(O)c(Br)c2)(c2cc(Br)c(O)c(Br)c2)c2ccccc21 [Bromophenol Blue Free Acid] | ~4.0 | –
